% of inhibition and % of control data for six compounds are collected here from ChEMBL document CHEMBL5465560, “Selectivity Literature for EUbOPEN Chemogenomic Library” (2024).

The subject of experiment [1] is Hepatocyte growth factor receptor (Homo sapiens), P08581 [D1228H]. In words: Selectivity interaction (LanthaScreen Eu Kinase Binding Assay) EUB0001632a MET. To be noted: at 10 µM.
The target of experiment [2] is Tyrosine-protein kinase Fer (Homo sapiens) (UniProt P16591). In words: Selectivity interaction (Kinase panel (Z-LYTE Assay)) EUB0001632a FER. To be noted: at 10 µM.
Experiment [3] concerns the target Tyrosine-protein kinase CSK (Homo sapiens) (UniProt P41240). As to the kind of experiment: Selectivity interaction (Kinase panel (Z-LYTE Assay)) EUB0001632a CSK. The note with it: at 10 µM.
For experiment [4], the target named is T1, cAMP-dependent protein kinase catalytic subunit PRKX (Homo sapiens) (UniProt P51817).
T1 sequence (whole entry): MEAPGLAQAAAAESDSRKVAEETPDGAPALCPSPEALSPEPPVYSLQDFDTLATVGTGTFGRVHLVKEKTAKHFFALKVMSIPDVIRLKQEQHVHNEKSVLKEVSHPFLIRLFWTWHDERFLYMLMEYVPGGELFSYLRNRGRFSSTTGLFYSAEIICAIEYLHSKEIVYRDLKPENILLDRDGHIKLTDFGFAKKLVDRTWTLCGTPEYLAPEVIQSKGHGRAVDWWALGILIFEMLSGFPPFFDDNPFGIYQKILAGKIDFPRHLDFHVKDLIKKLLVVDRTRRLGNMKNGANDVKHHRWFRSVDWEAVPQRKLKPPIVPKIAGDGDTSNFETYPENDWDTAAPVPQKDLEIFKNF
The note with it: at 10 µM.

The target in experiment [5] is Mitogen-activated protein kinase kinase kinase kinase 5 (Homo sapiens) (UniProt Q9Y4K4). To be noted: at 10 µM.
Mitogen-activated protein kinase kinase kinase kinase 5 (Homo sapiens), sequence (Q9Y4K4 whole entry, looked up): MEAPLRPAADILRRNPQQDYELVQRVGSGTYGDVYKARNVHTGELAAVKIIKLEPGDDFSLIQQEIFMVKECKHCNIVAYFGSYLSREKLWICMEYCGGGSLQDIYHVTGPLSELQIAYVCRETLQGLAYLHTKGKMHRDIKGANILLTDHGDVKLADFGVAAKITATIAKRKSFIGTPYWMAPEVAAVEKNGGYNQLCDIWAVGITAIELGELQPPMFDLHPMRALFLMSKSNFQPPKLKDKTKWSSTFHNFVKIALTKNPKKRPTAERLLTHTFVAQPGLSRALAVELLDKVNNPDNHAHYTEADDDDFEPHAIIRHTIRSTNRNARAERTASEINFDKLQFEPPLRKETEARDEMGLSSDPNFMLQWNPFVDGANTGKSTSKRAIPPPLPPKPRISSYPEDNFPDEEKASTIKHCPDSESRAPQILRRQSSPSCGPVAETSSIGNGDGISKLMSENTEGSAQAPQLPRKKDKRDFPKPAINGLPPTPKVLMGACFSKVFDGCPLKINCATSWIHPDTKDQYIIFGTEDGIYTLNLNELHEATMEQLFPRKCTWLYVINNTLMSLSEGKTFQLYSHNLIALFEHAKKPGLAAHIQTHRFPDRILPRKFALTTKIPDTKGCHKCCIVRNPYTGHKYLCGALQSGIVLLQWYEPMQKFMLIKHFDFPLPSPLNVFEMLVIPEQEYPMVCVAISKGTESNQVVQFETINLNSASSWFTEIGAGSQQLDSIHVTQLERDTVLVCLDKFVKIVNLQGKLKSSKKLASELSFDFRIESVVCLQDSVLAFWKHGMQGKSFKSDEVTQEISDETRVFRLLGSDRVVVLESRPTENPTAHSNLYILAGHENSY
The subject of experiment [6] is ALK tyrosine kinase receptor (Homo sapiens), Q9UM73 [L1196M]. As to the kind of experiment: (§1) Selectivity interaction (KinomeScan (DiscoverX)) EUB0001079a ALK. To be noted: at 1 µM.
Experiment [7] deals with ALK tyrosine kinase receptor (Homo sapiens), Q9UM73 [C1156Y]. The experiment is described as §1. To be noted: at 1 µM.
ALK tyrosine kinase receptor (Homo sapiens), Q9UM73 [C1156Y], sequence (Q9UM73 whole entry C1156Y, looked up): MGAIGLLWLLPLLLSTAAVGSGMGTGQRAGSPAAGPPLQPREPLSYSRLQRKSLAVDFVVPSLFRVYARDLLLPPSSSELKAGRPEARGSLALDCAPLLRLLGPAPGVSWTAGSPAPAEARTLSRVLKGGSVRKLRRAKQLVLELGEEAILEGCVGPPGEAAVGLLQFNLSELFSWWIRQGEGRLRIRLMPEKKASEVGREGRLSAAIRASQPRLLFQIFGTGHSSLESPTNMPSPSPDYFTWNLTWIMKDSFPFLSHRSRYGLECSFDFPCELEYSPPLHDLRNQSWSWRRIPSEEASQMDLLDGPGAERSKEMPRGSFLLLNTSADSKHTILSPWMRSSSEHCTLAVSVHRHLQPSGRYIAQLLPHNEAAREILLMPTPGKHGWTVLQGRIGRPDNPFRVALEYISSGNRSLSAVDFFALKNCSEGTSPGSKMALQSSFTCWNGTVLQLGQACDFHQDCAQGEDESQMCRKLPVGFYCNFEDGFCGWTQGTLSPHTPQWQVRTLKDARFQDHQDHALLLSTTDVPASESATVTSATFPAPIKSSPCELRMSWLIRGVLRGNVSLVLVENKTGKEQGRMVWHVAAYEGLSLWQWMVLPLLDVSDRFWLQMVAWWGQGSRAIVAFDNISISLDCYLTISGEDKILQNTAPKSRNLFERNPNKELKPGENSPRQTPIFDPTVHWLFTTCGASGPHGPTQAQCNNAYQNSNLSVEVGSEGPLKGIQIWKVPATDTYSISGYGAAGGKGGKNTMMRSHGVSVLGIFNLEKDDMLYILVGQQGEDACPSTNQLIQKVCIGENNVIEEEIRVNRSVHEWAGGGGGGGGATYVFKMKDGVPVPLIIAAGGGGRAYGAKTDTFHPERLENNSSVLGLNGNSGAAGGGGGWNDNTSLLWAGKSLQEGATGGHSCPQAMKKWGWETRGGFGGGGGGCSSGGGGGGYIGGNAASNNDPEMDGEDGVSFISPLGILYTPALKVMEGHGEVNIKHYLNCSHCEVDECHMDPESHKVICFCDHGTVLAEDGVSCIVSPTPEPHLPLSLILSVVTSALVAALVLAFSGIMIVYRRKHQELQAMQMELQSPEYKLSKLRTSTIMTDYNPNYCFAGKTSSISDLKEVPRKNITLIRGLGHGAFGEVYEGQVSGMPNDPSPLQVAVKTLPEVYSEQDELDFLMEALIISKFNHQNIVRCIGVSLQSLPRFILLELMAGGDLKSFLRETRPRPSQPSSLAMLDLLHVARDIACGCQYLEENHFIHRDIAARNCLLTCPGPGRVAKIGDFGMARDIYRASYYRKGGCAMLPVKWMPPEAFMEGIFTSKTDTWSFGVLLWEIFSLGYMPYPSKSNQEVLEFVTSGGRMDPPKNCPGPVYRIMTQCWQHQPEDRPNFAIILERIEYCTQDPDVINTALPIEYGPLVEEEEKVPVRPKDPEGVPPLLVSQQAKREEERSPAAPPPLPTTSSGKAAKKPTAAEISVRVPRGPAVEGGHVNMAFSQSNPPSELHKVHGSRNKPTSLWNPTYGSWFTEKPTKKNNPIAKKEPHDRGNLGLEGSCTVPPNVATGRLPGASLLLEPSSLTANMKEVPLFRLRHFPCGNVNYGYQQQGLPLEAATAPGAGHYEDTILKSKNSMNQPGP
Experiment [8] concerns the target ALK tyrosine kinase receptor (Homo sapiens, UniProt Q9UM73). The description is as §1. To be noted: at 1 µM.
Experiment [9] addresses Ribosomal protein S6 kinase beta-1 (Homo sapiens, UniProt P23443). As to the kind of experiment: Selectivity interaction (KinomeScan (DiscoverX)) EUB0001049a RPS6KB1. To be noted: at 1 µM.
The target in experiment [10] is CDC7/DBF4 (Cell division cycle 7-related protein kinase/Activator of S phase kinase) (Homo sapiens) (UniProt Q9UBU7+O00311). In words: Selectivity interaction (ProQinase) EUB0000171b CDC7. The format is protein-complex assay.
CDC7/DBF4 (Cell division cycle 7-related protein kinase/Activator of S phase kinase) (Homo sapiens), sequence (O00311 whole entry, looked up): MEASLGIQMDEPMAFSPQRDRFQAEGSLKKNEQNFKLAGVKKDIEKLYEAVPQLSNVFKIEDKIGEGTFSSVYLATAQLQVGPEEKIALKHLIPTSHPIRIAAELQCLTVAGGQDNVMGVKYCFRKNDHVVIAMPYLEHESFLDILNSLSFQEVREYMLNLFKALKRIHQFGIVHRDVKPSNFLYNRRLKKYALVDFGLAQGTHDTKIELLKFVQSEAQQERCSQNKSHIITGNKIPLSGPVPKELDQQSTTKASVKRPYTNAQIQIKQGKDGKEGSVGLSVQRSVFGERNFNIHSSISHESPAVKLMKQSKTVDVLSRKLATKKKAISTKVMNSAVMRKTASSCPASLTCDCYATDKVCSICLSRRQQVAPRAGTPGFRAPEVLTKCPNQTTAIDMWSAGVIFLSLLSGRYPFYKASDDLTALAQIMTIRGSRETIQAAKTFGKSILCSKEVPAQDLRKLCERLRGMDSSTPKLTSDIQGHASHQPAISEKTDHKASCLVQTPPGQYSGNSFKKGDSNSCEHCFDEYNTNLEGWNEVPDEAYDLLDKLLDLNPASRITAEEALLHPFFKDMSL
CDC7/DBF4 (Cell division cycle 7-related protein kinase/Activator of S phase kinase) (Homo sapiens), sequence (Q9UBU7 whole entry, looked up): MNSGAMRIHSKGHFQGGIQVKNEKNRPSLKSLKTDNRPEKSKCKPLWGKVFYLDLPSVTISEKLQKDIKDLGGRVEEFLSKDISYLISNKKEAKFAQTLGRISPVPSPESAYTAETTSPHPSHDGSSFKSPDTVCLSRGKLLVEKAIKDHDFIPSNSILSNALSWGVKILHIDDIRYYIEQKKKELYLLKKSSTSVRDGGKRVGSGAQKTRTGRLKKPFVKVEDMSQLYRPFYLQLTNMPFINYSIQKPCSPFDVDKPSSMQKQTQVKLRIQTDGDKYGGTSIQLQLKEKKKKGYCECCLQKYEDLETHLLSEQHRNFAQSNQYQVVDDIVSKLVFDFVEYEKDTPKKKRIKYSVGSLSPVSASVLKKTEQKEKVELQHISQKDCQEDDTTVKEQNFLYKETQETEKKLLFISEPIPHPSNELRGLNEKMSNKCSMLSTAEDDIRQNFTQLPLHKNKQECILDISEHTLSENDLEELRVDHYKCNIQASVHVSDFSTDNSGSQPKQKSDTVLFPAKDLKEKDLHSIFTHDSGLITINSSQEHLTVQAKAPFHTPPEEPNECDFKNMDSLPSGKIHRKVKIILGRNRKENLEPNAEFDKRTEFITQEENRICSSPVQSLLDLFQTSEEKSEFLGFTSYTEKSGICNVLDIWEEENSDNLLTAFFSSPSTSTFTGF
The target in experiment [11] is Receptor-type tyrosine-protein kinase FLT3 (Homo sapiens) (UniProt P36888). In words: Selectivity interaction (ProQinase) EUB0000171b FLT3. The note with it: at 5 µM.
Receptor-type tyrosine-protein kinase FLT3 (Homo sapiens), sequence (P36888 whole entry): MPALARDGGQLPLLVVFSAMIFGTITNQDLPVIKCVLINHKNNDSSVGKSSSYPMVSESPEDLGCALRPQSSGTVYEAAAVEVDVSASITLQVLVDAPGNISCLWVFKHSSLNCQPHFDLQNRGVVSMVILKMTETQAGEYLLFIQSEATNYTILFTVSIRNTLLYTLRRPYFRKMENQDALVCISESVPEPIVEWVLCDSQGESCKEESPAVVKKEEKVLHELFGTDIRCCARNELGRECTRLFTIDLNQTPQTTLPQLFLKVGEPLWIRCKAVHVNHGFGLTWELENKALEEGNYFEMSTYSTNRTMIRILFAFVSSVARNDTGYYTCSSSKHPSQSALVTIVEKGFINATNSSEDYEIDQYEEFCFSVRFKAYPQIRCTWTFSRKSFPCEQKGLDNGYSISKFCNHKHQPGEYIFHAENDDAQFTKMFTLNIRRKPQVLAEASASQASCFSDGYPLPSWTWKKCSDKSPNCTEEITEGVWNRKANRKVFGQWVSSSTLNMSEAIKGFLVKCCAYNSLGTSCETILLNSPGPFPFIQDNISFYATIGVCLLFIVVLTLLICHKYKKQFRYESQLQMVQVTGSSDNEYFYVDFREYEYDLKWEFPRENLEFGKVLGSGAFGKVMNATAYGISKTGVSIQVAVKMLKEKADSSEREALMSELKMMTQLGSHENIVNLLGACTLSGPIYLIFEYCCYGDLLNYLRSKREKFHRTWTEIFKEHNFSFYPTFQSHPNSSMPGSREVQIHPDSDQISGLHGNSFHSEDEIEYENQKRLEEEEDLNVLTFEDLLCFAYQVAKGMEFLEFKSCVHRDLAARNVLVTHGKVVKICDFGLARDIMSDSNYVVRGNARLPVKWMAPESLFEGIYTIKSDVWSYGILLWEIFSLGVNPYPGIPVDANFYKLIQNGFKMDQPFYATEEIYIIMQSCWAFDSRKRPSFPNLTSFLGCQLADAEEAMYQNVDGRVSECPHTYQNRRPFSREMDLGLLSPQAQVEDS
The target in experiment [12] is T2, Serine/threonine-protein kinase TAO2 (Homo sapiens) (UniProt Q9UL54).
T2 sequence (whole entry): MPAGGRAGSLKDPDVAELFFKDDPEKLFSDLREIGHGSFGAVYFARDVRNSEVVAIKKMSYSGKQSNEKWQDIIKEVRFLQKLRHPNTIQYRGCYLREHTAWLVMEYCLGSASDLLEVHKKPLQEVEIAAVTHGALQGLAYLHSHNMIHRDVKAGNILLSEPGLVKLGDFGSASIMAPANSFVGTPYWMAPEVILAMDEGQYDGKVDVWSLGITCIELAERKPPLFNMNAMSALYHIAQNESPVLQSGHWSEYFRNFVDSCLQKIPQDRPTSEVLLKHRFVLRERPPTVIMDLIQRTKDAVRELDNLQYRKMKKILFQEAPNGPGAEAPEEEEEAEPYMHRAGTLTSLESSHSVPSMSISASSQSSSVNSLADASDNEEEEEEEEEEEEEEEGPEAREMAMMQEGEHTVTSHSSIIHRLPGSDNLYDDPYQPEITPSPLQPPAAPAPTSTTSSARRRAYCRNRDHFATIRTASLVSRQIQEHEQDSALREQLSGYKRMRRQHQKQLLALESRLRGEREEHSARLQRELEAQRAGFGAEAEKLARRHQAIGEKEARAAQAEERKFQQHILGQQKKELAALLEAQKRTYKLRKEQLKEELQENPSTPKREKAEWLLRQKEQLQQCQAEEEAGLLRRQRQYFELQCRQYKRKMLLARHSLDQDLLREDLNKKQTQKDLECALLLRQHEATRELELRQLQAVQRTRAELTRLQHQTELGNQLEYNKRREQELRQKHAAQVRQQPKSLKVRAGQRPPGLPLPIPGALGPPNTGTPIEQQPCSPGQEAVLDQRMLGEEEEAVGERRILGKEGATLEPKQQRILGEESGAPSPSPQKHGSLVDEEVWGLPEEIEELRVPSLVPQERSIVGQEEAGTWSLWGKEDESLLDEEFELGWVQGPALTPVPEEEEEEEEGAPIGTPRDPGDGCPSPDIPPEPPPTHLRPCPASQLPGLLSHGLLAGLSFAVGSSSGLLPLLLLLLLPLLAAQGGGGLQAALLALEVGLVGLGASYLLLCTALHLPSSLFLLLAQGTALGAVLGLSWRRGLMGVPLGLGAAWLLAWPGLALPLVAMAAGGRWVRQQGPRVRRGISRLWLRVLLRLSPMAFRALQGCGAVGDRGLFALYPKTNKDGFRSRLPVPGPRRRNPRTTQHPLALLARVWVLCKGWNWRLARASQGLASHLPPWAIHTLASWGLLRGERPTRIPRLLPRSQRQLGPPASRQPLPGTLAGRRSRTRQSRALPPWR
As to the kind of experiment: Selectivity interaction (KinomeScan (DiscoverX)) EUB0000092b TAOK2. The note with it: at 10 µM.

In experiment [13] the target is T3, Tyrosine-protein kinase ITK/TSK (Homo sapiens) (UniProt Q08881).
T3 sequence (whole entry): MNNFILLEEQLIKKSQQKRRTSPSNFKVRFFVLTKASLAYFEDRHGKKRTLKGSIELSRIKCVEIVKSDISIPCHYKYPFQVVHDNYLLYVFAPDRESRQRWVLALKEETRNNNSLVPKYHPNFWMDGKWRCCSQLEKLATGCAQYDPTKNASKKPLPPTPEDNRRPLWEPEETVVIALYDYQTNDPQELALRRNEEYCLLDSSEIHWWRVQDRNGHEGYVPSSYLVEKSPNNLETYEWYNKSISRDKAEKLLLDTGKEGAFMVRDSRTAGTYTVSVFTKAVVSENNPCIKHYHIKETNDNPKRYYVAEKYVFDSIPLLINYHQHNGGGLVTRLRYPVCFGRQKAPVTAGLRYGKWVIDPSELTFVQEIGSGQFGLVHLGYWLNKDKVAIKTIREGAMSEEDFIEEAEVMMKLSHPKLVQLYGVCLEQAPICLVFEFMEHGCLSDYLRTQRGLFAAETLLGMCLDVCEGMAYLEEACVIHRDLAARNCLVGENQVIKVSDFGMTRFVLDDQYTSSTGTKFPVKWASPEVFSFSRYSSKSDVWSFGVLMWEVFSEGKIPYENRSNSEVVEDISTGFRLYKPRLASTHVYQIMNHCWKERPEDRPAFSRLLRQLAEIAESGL
In words: Selectivity interaction (KinomeScan (DiscoverX)) EUB0000092b ITK. To be noted: at 10 µM.

ALK tyrosine kinase receptor (Homo sapiens), Q9UM73 [L1196M], sequence (Q9UM73 whole entry L1196M, looked up): as the sequence (Q9UM73 whole entry C1156Y, looked up) above, with Y1156C, L1196M counted along it

Turning to `Cn1cc(-n2cnc3c(NCc4nc5cc(Cl)c(Cl)cc5[nH]4)nc(N4CCOCC4)nc32)cn1`, in [1], the % of inhibition was -208%. The figures for the % of control in experiment [2] and in [3] were 3.17% and 10.7%, respectively.

Consider `Cc1cc([C@@H](C)Nc2ccccc2C(=O)O)c2nc(N3CCOCC3)cc(=O)n2c1` [AZD-6482], for which the % of control in experiment [4] stood at 91%; in experiment [5], 96%.

`Nc1cnc(N2CCc3cc(S(=O)(=O)Nc4c(F)cc(Cl)cc4F)cc(N4CCCC4=O)c32)nc1` [TP-020n]: the figures for the % of control in experiment [6], in experiment [7] and in experiment [8] were 81%, 100% and 100%, respectively.

On to `COc1cc(Nc2nc(C)cc(-c3cnn4nc(OC)ccc34)n2)cc(C(F)(F)F)c1`, for which the % of control in experiment [9] turned out to be 87%.

Regarding `C=CC(=O)Nc1cccc(C(=O)Nc2ccc(Nc3cc(-c4[nH]c(SC)nc4C)ccn3)cc2)c1`, the results for the % of control in experiment [10] (at 1 µM), in [10] (at 5 µM) and in [11] were 94%, 89% and 62%, respectively.

With `CCC(=O)N1CCN(c2ccc(-n3c(=O)ccc4cnc5ccc(-c6cnc7ccccc7c6)cc5c43)cc2C(F)(F)F)CC1`, the % of control in experiment [12] worked out at 84%; in experiment [13], 100%.
